{SH} = thiol group (3'-OH replaced by SH), used for disulfide linkage to a drug
Tests used:
[1] = system: AGTR1-positive breast cancer MCF7 cell line (MCF7-AGTR1); experiment: p-His3 (mitotic arrest marker) ICC/confocal in co-culture, AGTR1-positive cells; assay type: cell-based, human; conditions: 10 nM, 24 hr; co-culture 1:1 with BT474; HER2-not-expressed cells = MCF7-AGTR1
Description: (§1) (1) As produced in Example 1, the AGTR1-positive breast cancer MCF7 cell line (MCF7-AGTR1) and the AGTR1-negative breast cancer BT474 cell line (typically, MCF7 is a HER2-negative breast cancer cell line and BT474 is a HER2-positive breast cancer cell line) were co-cultured at a ratio of 1:1, and HER2 and a mitotic arrest marker, namely phospho-Histone H3 (p-[…]), were stained with ICC, the nuclei of which were stained with DAPI, and were then treated with a control (DMSO), DM1, and Aptamer-DM1 at a concentration of 10 nM for 24 hr. Thereafter, the nuclei (blue), p-[…] (green), and HER2 (red) were imaged using a confocal microscope. The number of cells in which p-[…] was detected was quantified based on whether or not AGTR1 was expressed. During the staining procedure, the MCF7-AGTR1 and BT474 cells cultured on 8-well chamber slides were fixed with 4% paraformaldehyde, washed with PBS, and cultured for 10 min with 0.2% Triton X-100. Thereafter, the cells were cultured overnight at 4° C. with primary antibodies in an antibody dilution buffer and then cultured at room temperature for 2 hr with fluorescence-conjugated secondary antibodies. Thereafter, the cells were mounted on ProLong Gold Antifade Reagent containing DAPI (4',6'-diamidine-2'-phenylindole dihydrochloride).

[2] = system: AGTR1-negative breast cancer BT474 cell line; experiment: p-His3 (mitotic arrest marker) ICC/confocal in co-culture, AGTR1-negative cells; assay type: cell-based, human; conditions: 10 nM, 24 hr; co-culture 1:1 with MCF7-AGTR1; HER2-expressed cells = BT474
Description: as §1

[3] = system: AGTR1-positive breast cancer cell line (MCF7-AGTR1); experiment: Apoptosis rate (sub-G1%) by PI DNA content flow cytometry, AGTR1-positive cells; assay type: cell-based, human; conditions: 10 nM, 48 hr
Description: (§2) (1) The AGTR1-positive breast cancer cell line (MCF7-AGTR1) and the AGTR1-negative breast cancer cell line (BT474) were treated with a control (DMSO), DM1, Aptamer, and Aptamer-DM1 at a concentration of 10 nM for 48 hr, after which the cells were acquired and fixed with 95% ethanol containing 0.5% Tween-20 for 24 hr and cultured for 30 min with propidium iodide (PI, 50 μg/ml) and RNase (50 μg/ml). Thereafter, the apoptosis rate (sub-G1%) of cancer cells was measured through DNA content analysis using flow cytometry.
(§3) (2) Typically, the cell cycle includes, depending on the amount of DNA in cells, G1 (cell growth phase), S (cell replication phase), and G2/M (cell mitotic phase). […] The results of apoptosis are represented by the percentage of sub-G1 in the cell cycle.

[4] = system: AGTR1-negative breast cancer cell line (BT474); experiment: Apoptosis rate (sub-G1%) by PI DNA content flow cytometry, AGTR1-negative cells; assay type: cell-based, human; conditions: 10 nM, 48 hr
Description: as §2, §3

MCF7-AGTR1 cancer cells = experiment: Tumor volume in breast cancer disease animal model; assay type: in vivo, BALB/c nude mice; conditions: 0.75 mg/kg intraperitoneally three times a week, measured for 3 weeks
Description: (1) Starting from the 4th day after MCF7-AGTR1 cancer cells (3×10^6 cells) were inoculated into the fourth mammary fat pads of immunodeficient 6-week-old female BALB/c nude mice, Aptamer (0.75 mg/kg) and Aptamer-DM1 (0.5 mg/kg, 0.75 mg/kg) were intraperitoneally administered three times a week. Then, the tumor volume was measured for 3 weeks. The body weights of mice were measured for 3 weeks. The tumor volume (V) was measured using a caliper and calculated according to V=(length×width^2)/2. In a Terminal deoxynucleotidyl transferase dUTP Nick End Labeling (TUNEL) assay, the tumors were removed from the mice, fixed in 10% neutral buffered formalin, and embedded in paraffin. The 4 μm thick tissue section was mounted on a positively charged glass slide, deparaffinized with xylene, and […] through a graded alcohol series. After antigen retrieval, the above tissue section was boiled in a citric acid buffer (pH 6.0) and immunofluorescence was performed. In situ TUNEL was performed on the above tissue section using a TUNEL kit (Roche Applied Sciences, Penzberg, GER), and the images thereof were obtained using a confocal scanning microscope.

[5] = system: AGTR1-overexpressed SK-BR-3; experiment: Confocal imaging of Cy3-coupled aptamers binding to / internalizing in AGTR1-positive cells; assay type: cell-based, human; conditions: 500 nM Cy3-coupled aptamer, 10^7 cells, room temperature; compared among SEQ ID NOS:1 to 6
Description: 1) 100 μl (10^7 cells) of target cells, namely AGTR1-overexpressed SK-BR-3, and 100 μl of 500 nM aptamer were reacted at room temperature and imaged using a confocal microscope. The aptamers have respective base sequences of SEQ ID NOS:1 to 6, the end of each of which is coupled with a fluorescence dye Cy3.

Molecule | expression of p-His3 (confocal, FIG. 4) [1] | expression of p-His3 (confocal, FIG. 4) [2] | apoptosis rate (sub-G1%) (FIG. 6) [3] | apoptosis rate (sub-G1%) (FIG. 6) [4] | growth of tumors (tumor volume, FIG. 7) (MCF7-AGTR1 cancer cells) | internalization / fluorescence intensity (confocal, FIG. 3) [5]
COc1cc2cc(c1Cl)N(C)C(=O)C[C@H](OC(=O)[C@H](C)N(C)C(C)=O)[C@]1(C)O[C@H]1[C@H](C)[C@@H]1C[C@@](O)(NC(=O)O1)[C@H](OC)/C=C/C=C(\C)C2 [DM1, maytansine] | observed regardless of whether HER2 was expressed or not | observed regardless of whether HER2 was expressed or not | relatively high | relatively high |  | 
Aptamer: DNA aptamer 5'-AAGTCGTCTTTGCCAAATACCGGTCTGTCGGTGGGTATTG-3' (SEQ ID NO:4) with thiol group introduced at the 3' terminus (DNA, 3' {SH}, backbone not given here) |  |  | remarkably low | remarkably low | partially inhibited | 
SEQ ID NO:4: ssDNA aptamer AAGTCGTCTTTGCCAAATACCGGTCTGTCGGTGGGTATTG; Cy3-coupled in the confocal test (DNA, backbone not given here; further chemistry not fully specified) |  |  |  |  |  | strongest fluorescence intensity

Source: patent publication US10195285B2, “AGTR1 aptamer-anticancer drug complex for cancer cell chemotherapy” (KOREA UNIVERSITY RESEARCH AND BUSINESS FOUNDATION, priority 2016, dated 2019)
